From US20220280543A1, “DDX17 AND NLRC4 TARGETING FOR INFLAMMATORY DISEASES” (University of Virginia Patent Foundation, priority 2019, published 2022)

Biological target: DDX17 (Homo sapiens, UniProt Q92841)
Assay: CLIP (cross-linking immunoprecipitation) of biotin-Alu RNA and DDX17 in HEK293 cells
Type: binding
Set-up: Myc; expressed in transfected cells; host or cells: HEK293
Conditions: UV cross-linking, streptavidin pull down (FIG. 8B)
From the text: FIGS. 8A-8C. CLIP (cross-linking immunoprecipitation) on Alu RNA (SEQ ID NO: 86) and Ddx17 interaction. Human HEK293 cell transfected with btn-Alu RNA (SEQ ID NO: 86), cross-linked by ultraviolet light, pull-downed by biotin-streptavidin. The binding of Ddx17 determined by western blot. FIG. 8A. Schematic of CLIP (cross-linking immunoprecipitation) for biotin or myc-tag mediated immunoprecipitation. FIG. 8B. […] WCL is whole cell lysates. The bands of pull downed DDX17 proteins by Alu RNA (SEQ ID NO: 86) were indicated by black arrow. FIG. 8C. The HEK293 cells were transfected with myc-tagged DDX17 and biotin-Alu RNA (SEQ ID NO: 86). Cells were cross-linked and lysates for immunoprecipitation by Anti-myc beads. The total RNA was extracted, and were the Alu RNA (SEQ ID NO: 86) were detected with Northern blot. […] The bands of pull-downed Alu RNA (SEQ ID NO: 86) by myc-DDX17 proteins were indicated by black arrow.
Next, we sought to identify the sensor responsible for Alu RNA (SEQ ID NO: 86) induced NLRC4 inflammasome activation. We employed cross-linking immunoprecipitation (CLIP)-mass spectrometry to reveal protein interaction partners of Alu RNA (SEQ ID NO: 86). […] Immunoprecipitation of the cell lysate with anti-Streptavidin (FIG. 8B) or Myc antibody (FIG. 8C) pulled down biotin-labelled Alu RNA (SEQ ID NO: 86), as detected by northern blotting. […]

Chain of DDX17 (Q92841 whole entry, species assumed): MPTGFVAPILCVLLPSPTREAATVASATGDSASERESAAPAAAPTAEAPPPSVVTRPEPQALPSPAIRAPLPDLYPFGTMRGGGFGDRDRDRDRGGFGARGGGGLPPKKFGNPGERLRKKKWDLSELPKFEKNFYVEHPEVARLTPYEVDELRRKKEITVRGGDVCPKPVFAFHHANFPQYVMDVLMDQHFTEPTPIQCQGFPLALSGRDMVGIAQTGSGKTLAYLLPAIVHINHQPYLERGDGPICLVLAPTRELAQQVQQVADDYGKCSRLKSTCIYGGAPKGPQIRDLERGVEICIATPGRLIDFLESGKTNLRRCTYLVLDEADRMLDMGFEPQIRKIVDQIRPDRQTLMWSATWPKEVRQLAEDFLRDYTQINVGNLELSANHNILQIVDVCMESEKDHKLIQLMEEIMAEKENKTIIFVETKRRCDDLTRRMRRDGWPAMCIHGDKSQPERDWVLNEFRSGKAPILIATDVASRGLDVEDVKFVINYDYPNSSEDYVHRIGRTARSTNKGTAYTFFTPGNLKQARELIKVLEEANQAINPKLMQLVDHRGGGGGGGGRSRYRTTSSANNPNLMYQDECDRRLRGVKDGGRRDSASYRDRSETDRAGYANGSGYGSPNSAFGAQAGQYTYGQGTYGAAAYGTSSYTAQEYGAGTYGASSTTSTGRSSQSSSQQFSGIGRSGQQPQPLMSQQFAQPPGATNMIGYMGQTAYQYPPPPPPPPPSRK

Alu RNA: human SINE RNA, SEQ ID NO: 86
binding of DDX17 to biotin-Alu RNA: physically binds
